Results published in patent US9156796B2, “Benzoimidazole-carboxylic acid amide derivatives as APJ receptor modulators” (SANOFI, priority 2013, dated 2015).

Target: T1, human apelin receptor (Homo sapiens, UniProt P35414)
T1 construct: expressed in transfected cells
T1 sequence (P35414 1-380): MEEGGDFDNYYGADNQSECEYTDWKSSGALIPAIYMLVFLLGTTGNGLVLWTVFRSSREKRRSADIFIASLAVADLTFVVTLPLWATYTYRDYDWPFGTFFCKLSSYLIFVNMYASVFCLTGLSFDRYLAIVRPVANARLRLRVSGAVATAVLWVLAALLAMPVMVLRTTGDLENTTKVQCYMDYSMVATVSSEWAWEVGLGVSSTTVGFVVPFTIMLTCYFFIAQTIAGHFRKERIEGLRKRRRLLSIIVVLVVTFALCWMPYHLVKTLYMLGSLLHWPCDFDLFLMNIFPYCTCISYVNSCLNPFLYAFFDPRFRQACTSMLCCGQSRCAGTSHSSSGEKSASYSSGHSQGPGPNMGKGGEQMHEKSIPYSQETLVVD
Experiment: Determination of agonism on the human apelin receptor by a calcium fluorescence assay (FLIPR)
Format: cell-based
Details: HEK293 cells stably transfected with human apelin receptor and Giaq protein, Fluo-4 calcium fluorescence, read-out: EC50 (APJ agonism)
Outline: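 HEK293 cells stably co-expressing human apelin receptor and promiscuous Giaq, loaded 1 h at 37 °C with Fluo-4 (4 μM) in probenecid-containing Hepes buffer, pH 7.4. Compounds, at least 7 concentrations in triplicate, added in FLIPR Tetra; peak calcium fluorescence normalized to 1 μM apelin-13 as 100% to derive EC50.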

EC50 [µM]	Compound
0.722	CCC(CC)n1c(Cc2cccs2)nc2cc(C(=O)N[C@@H](CC(C)C)C(=O)NCCCN3CC(C)OC(C)C3)ccc21 (stereo partly drawn) [Example 294, 1-(1-Ethyl-propyl)-2-thiophen-2-ylmethyl-1H-benzoimidazole-5-carboxylic acid {(S)-1-[3-(2,6-dimethyl-morpholin-4-yl)-propylcarbamoyl]-3-methyl-butyl}-amide]
1.83	CCC(CC)n1c(Cc2cccs2)nc2cc(C(=O)N[C@@H](CC(C)C)C(=O)NC3CCN(Cc4ccccn4)CC3)ccc21 [Example 295, 1-(1-Ethyl-propyl)-2-thiophen-2-ylmethyl-1H-benzoimidazole-5-carboxylic acid [(S)-3-methyl-1-(1-pyridin-2-ylmethyl-piperidin-4-ylcarbamoyl)-butyl]-amide]
1.03	CCC(CC)n1c(Cc2cccs2)nc2cc(C(=O)N[C@@H](CC(C)C)C(=O)N3CCC(N4CCc5ccccc5C4)CC3)ccc21 [Example 296, 1-(1-Ethyl-propyl)-2-thiophen-2-ylmethyl-1H-benzoimidazole-5-carboxylic acid {(S)-1-[4-(3,4-dihydro-1H-isoquinolin-2-yl)-piperidine-1-carbonyl]-3-methyl-butyl}-amide]
0.39	CCC(CC)n1c(Cc2cccs2)nc2cc(C(=O)N[C@@H](CC(C)C)C(=O)NCC3CCCN(C)C3)ccc21 (stereo partly drawn) [Example 297, 1-(1-Ethyl-propyl)-2-thiophen-2-ylmethyl-1H-benzoimidazole-5-carboxylic acid {(S)-3-methyl-1-[(1-methyl-piperidin-3-ylmethyl)-carbamoyl]-butyl}-amide]
1.26	CCC(CC)n1c(Cc2cccs2)nc2cc(C(=O)N[C@@H](CC(C)C)C(=O)NC3CCN(Cc4ccncc4)CC3)ccc21 [Example 298, 1-(1-Ethyl-propyl)-2-thiophen-2-ylmethyl-1H-benzoimidazole-5-carboxylic acid [(S)-3-methyl-1-(1-pyridin-4-ylmethyl-piperidin-4-ylcarbamoyl)-butyl]-amide]
0.776	CCC(CC)n1c(Cc2cccs2)nc2cc(C(=O)N[C@@H](CC(C)C)C(=O)N3CCC(N4CCCCC4)C3)ccc21 (stereo partly drawn) [Example 299, 1-(1-Ethyl-propyl)-2-thiophen-2-ylmethyl-1H-benzoimidazole-5-carboxylic acid [(S)-3-methyl-1-(3-piperidin-1-yl-pyrrolidine-1-carbonyl)-butyl]-amide]
0.732	CCC(CC)n1c(Cc2cccs2)nc2cc(C(=O)N[C@@H](CC(C)C)C(=O)N3CCC(N4CCC(C)CC4)C3)ccc21 (stereo partly drawn) [Example 300, 1-(1-Ethyl-propyl)-2-thiophen-2-ylmethyl-1H-benzoimidazole-5-carboxylic acid {(S)-3-methyl-1-[3-(4-methyl-piperidin-1-yl)-pyrrolidine-1-carbonyl]-butyl}-amide]
2.46	CCC(CC)n1c(Cc2cccs2)nc2cc(C(=O)N[C@@H](CC(C)C)C(=O)NC3CCN(Cc4cccc(F)c4)CC3)ccc21 [Example 301, 1-(1-Ethyl-propyl)-2-thiophen-2-ylmethyl-1H-benzoimidazole-5-carboxylic acid {(S)-1-[1-(3-fluoro-benzyl)-piperidin-4-ylcarbamoyl]-3-methyl-butyl}-amide]
0.386	CCC(CC)n1c(Cc2cccs2)nc2cc(C(=O)N[C@@H](CC(C)C)C(=O)NCC3CCCN(CCc4ccccc4)C3)ccc21 (stereo partly drawn) [Example 302, 1-(1-Ethyl-propyl)-2-thiophen-2-ylmethyl-1H-benzoimidazole-5-carboxylic acid {(S)-3-methyl-1-[(1-phenethyl-piperidin-3-ylmethyl)-carbamoyl]-butyl}-amide]
0.214	CCC(CC)n1c(Cc2cccs2)nc2cc(C(=O)N[C@@H](CC(C)C)C(=O)NCC3CCCN(CC)C3)ccc21 (stereo partly drawn) [Example 303, 1-(1-Ethyl-propyl)-2-thiophen-2-ylmethyl-1H-benzoimidazole-5-carboxylic acid {(S)-1-[(1-ethyl-piperidin-3-ylmethyl)-carbamoyl]-3-methyl-butyl}-amide]
0.461	CCC(CC)n1c(Cc2cccs2)nc2cc(C(=O)N[C@@H](CC(C)C)C(=O)NCC3CCN(CC(C)C)C3)ccc21 (stereo partly drawn) [Example 304, 1-(1-Ethyl-propyl)-2-thiophen-2-ylmethyl-1H-benzoimidazole-5-carboxylic acid {(S)-1-[(1-isobutyl-pyrrolidin-3-ylmethyl)-carbamoyl]-3-methyl-butyl}-amide]
0.319	CCC(CC)n1c(Cc2cccs2)nc2cc(C(=O)N[C@@H](CC(C)C)C(=O)NCC3CCN(CCOC)C3)ccc21 (stereo partly drawn) [Example 305, 1-(1-Ethyl-propyl)-2-thiophen-2-ylmethyl-1H-benzoimidazole-5-carboxylic acid ((S)-1-{[1-(2-methoxy-ethyl)-pyrrolidin-3-ylmethyl]-carbamoyl}-3-methyl-butyl)-amide]
1.26	CCC(CC)n1c(Cc2cccs2)nc2cc(C(=O)N[C@@H](CC(C)C)C(=O)NC(C)CCN3CCOCC3)ccc21 (stereo partly drawn) [Example 306, 1-(1-Ethyl-propyl)-2-thiophen-2-ylmethyl-1H-benzoimidazole-5-carboxylic acid [(S)-3-methyl-1-(1-methyl-3-morpholin-4-yl-propylcarbamoyl)-butyl]-amide]
1.83	CCC(CC)n1c(Cc2cccs2)nc2cc(C(=O)N[C@@H](CC(C)C)C(=O)NCCC3CCCCN3Cc3ccccc3)ccc21 (stereo partly drawn) [Example 307, 1-(1-Ethyl-propyl)-2-thiophen-2-ylmethyl-1H-benzoimidazole-5-carboxylic acid {(S)-1-[2-(1-benzyl-piperidin-2-yl)-ethylcarbamoyl]-3-methyl-butyl}-amide]
0.672	CCC(CC)n1c(Cc2cccs2)nc2cc(C(=O)N[C@@H](CC(C)C)C(=O)NC3CCN(Cc4cccnc4)CC3)ccc21 [Example 308, 1-(1-Ethyl-propyl)-2-thiophen-2-ylmethyl-1H-benzoimidazole-5-carboxylic acid [(S)-3-methyl-1-(1-pyridin-3-ylmethyl-piperidin-4-ylcarbamoyl)-butyl]-amide]
0.482	CCCN1CCCC(CNC(=O)[C@H](CC(C)C)NC(=O)c2ccc3c(c2)nc(Cc2cccs2)n3C(CC)CC)C1 (stereo partly drawn) [Example 309, 1-(1-Ethyl-propyl)-2-thiophen-2-ylmethyl-1H-benzoimidazole-5-carboxylic acid {(S)-3-methyl-1-[(1-propyl-piperidin-3-ylmethyl)-carbamoyl]-butyl}-amide]
0.162	CCC(CC)n1c(Cc2cccs2)nc2cc(C(=O)N[C@@H](CC(C)C)C(=O)N3CCC(N(C)CCN(C)C)CC3)ccc21 [Example 310, 1-(1-Ethyl-propyl)-2-thiophen-2-ylmethyl-1H-benzoimidazole-5-carboxylic acid ((S)-1-{4-[(2-dimethylamino-ethyl)-methyl-amino]-piperidine-1-carbonyl}-3-methyl-butyl)-amide]
21.2	CCC(CC)n1c(Cc2cccs2)nc2cc(C(=O)N[C@@H](CC(C)C)C(=O)N3CCN(Cc4ccc5c(c4)OCO5)CC3)ccc21 [Example 311, 1-(1-Ethyl-propyl)-2-thiophen-2-ylmethyl-1H-benzoimidazole-5-carboxylic acid [(S)-1-(4-benzo[1,3]dioxol-5-ylmethyl-piperazine-1-carbonyl)-3-methyl-butyl]-amide]
2.96	CCC(CC)n1c(Cc2cccs2)nc2cc(C(=O)N[C@@H](CC(C)C)C(=O)N3CCN(c4ccccn4)CC3)ccc21 [Example 312, 1-(1-Ethyl-propyl)-2-thiophen-2-ylmethyl-1H-benzoimidazole-5-carboxylic acid [(S)-3-methyl-1-(4-pyridin-2-yl-piperazine-1-carbonyl)-butyl]-amide]
1.89	CCC(CC)n1c(Cc2cccs2)nc2cc(C(=O)N[C@@H](CC(C)C)C(=O)NC3CCN(Cc4ccccc4)CC3)ccc21 [Example 313, 1-(1-Ethyl-propyl)-2-thiophen-2-ylmethyl-1H-benzoimidazole-5-carboxylic acid [(S)-1-(1-benzyl-piperidin-4-ylcarbamoyl)-3-methyl-butyl]-amide]
0.474	CCC(CC)n1c(Cc2cccs2)nc2cc(C(=O)N[C@@H](CC(C)C)C(=O)NC(C)CCCN(CC)CC)ccc21 (stereo partly drawn) [Example 314, 1-(1-Ethyl-propyl)-2-thiophen-2-ylmethyl-1H-benzoimidazole-5-carboxylic acid [(S)-1-(4-diethylamino-1-methyl-butylcarbamoyl)-3-methyl-butyl]-amide]
2.45	CCC(CC)n1c(Cc2cccs2)nc2cc(C(=O)N[C@@H](CC(C)C)C(=O)N3CCN(c4ccccc4OC)CC3)ccc21 [Example 315, 1-(1-Ethyl-propyl)-2-thiophen-2-ylmethyl-1H-benzoimidazole-5-carboxylic acid {(S)-1-[4-(2-methoxy-phenyl)-piperazine-1-carbonyl]-3-methyl-butyl}-amide]
22	CCC(CC)n1c(Cc2cccs2)nc2cc(C(=O)N[C@@H](CC(C)C)C(=O)Nc3cccc(N(C)C)c3)ccc21 [Example 316, 1-(1-Ethyl-propyl)-2-thiophen-2-ylmethyl-1H-benzoimidazole-5-carboxylic acid [(S)-1-(3-dimethylamino-phenylcarbamoyl)-3-methyl-butyl]-amide]
14	CCC(CC)n1c(Cc2cccs2)nc2cc(C(=O)N[C@@H](CC(C)C)C(=O)NC3CCN(c4ccccc4)CC3)ccc21 [Example 317, 1-(1-Ethyl-propyl)-2-thiophen-2-ylmethyl-1H-benzoimidazole-5-carboxylic acid [(S)-3-methyl-1-(1-phenyl-piperidin-4-ylcarbamoyl)-butyl]-amide]
